≈ marks a conversion by molar mass, not a printed value. Where two headings read alike, the source gives them in different places.
Columns and labels:
[1] = molecular target: T1, human dopamine D4.4 receptor (Homo sapiens, UniProt P21917); experiment: Human dopamine D4.4 receptor radioligand binding assay (Eurofins); set-up: % Inhibition at D4.4: dose or concentration left out as unconfirmed; conditions: for % Inhibition at 10 μM D4.4: [3H]Spiperone binding; for inhibition at 10 µM: read-out: % Inhibition at 10 μM D4.4
T1 sequence (P21917 1-419): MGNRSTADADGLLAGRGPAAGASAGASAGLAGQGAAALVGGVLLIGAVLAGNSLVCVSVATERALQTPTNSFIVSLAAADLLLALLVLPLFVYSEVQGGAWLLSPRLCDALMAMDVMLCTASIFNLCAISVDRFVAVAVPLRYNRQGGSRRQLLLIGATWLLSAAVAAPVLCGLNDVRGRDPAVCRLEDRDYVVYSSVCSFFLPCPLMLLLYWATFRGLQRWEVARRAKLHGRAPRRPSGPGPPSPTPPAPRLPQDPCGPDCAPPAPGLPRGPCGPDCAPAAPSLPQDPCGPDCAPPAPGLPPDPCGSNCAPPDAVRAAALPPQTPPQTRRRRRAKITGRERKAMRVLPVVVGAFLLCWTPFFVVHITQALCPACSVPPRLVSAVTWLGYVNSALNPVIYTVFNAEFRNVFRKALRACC

[2] = molecular target: human dopamine D2S receptor (Homo sapiens, UniProt P14416); experiment: Human dopamine D2S receptor radioligand binding assay (Eurofins); conditions: for % Inhibition at 10 μM D2S: [3H]Spiperone binding, Eurofins Discovery
Chain of human dopamine D2S receptor (P14416 1-414 isoform P14416-2): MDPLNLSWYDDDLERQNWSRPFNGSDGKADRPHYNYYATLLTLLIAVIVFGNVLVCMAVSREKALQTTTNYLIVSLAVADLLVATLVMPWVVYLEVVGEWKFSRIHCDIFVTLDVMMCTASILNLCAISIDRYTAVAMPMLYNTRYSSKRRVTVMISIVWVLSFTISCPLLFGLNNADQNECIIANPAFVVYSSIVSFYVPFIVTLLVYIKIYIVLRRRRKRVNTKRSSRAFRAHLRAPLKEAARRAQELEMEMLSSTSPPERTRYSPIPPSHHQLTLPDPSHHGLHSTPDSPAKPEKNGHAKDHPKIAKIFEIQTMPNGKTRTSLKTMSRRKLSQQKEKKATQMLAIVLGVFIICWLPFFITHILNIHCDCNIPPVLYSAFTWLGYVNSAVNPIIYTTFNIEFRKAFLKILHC

[3] = molecular target: human dopamine D1 receptor (Homo sapiens, UniProt P21728); experiment: Human dopamine D1 receptor radioligand binding assay (Eurofins); conditions: for % Inhibition at 10 μM D1: [3H]SCH-23390 binding, Eurofins Discovery
Chain of human dopamine D1 receptor (P21728 whole entry): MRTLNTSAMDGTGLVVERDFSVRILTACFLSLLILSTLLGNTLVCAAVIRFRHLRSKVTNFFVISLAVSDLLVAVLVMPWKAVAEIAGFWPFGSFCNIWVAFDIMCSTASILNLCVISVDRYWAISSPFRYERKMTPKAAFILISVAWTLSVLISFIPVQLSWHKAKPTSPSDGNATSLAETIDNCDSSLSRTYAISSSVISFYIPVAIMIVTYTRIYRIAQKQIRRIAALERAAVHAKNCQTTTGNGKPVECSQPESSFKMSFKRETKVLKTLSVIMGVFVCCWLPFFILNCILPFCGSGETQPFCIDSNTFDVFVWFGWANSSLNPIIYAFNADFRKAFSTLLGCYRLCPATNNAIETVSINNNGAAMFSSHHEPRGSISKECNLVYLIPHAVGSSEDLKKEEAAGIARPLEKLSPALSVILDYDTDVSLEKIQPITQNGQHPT

[4] = molecular target: Human recombinant dopamine D2L receptor (Homo sapiens, UniProt P14416); experiment: Human dopamine D2L receptor radioligand binding assay (Eurofins); conditions: for % Inhibition at 10 μM D2L: [3H]Spiperone binding, Eurofins Discovery
Chain of Human recombinant dopamine D2L receptor (P14416 whole entry): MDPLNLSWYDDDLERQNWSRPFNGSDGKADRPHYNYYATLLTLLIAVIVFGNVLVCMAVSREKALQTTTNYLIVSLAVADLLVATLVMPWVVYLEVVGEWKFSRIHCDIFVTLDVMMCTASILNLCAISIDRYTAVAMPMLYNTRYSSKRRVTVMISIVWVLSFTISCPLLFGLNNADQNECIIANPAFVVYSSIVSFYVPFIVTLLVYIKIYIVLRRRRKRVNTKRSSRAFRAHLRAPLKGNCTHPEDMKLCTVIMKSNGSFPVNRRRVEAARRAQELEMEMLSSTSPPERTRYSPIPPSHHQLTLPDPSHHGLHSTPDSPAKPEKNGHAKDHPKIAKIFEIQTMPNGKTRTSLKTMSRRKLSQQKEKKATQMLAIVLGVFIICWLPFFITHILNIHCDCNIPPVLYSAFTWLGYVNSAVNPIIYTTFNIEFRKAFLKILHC

[5] = molecular target: human dopamine D3 receptor (Homo sapiens, UniProt P35462); experiment: Human dopamine D3 receptor radioligand binding assay (Eurofins); conditions: for % Inhibition at 10 μM D3: [3H]Spiperone binding, Eurofins Discovery
Chain of human dopamine D3 receptor (P35462 whole entry): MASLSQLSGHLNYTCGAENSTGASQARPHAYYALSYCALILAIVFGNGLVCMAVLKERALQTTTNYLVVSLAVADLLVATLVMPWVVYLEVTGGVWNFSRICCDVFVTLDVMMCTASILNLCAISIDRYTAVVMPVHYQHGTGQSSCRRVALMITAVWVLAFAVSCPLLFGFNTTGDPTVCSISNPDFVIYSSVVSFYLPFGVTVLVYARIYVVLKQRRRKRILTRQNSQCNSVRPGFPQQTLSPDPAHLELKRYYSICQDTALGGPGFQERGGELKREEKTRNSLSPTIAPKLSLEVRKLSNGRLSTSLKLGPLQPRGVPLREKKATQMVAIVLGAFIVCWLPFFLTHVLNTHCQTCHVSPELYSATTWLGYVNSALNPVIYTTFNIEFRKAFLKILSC

[6] = Kinetic solubility (shake flask, McIlvaine buffer); type: physicochemical; conditions: for Solubility pH = 2.2 / Solubility pH = 6.8: kinetic, 100 µM, 18 hours room temperature; for Solubility pH = 2.2: McIlvaine buffer pH 2.2; for Solubility pH = 6.8: McIlvaine buffer pH 6.8; for solubility at 18 h: McIlvaine buffer, kinetic from dmso stock
[7] = Microsomal stability, rat hepatic microsomes; type: in vitro ADME; conditions: predicted hepatic clearance
[8] = Microsomal stability, human hepatic microsomes; type: in vitro ADME; conditions: predicted hepatic clearance
[9] = Plasma protein binding, equilibrium dialysis, rat plasma; type: in vitro ADME
[10] = Metabolite profiling in human hepatocytes; type: in vitro ADME; conditions: 4 h
[11] = Plasma protein binding, equilibrium dialysis, human plasma; type: in vitro ADME
[12] = Metabolite profiling in rat hepatocytes; type: in vitro ADME; conditions: 4 h
[13] = In vivo pharmacokinetics, intravenous cassette dosing in rats; set-up: species or system male Sprague-Dawley rats; conditions: rat; for AUC (area under the curve) / CLp (plasma clearance) / Vss (volume of distribution at steady-state) / t1/2 (terminal phase plasma half-life): intravenous 0.2 mg/kg, cassette; for in vivo clearance relative to hepatic blood flow (superhepatic clearance): intravenous dosing
[14] = read-out: D4.4 IC50, Eurofins Discovery
[15] = read-out: D4.4 Ki, Eurofins Discovery

Row | Structure (SMILES) | % Inhibition at 10 μM D4.4 ([1]; Eurofins Discovery) | IC50 [1, 14] | Ki [1, 15] | % Inhibition at 10 μM D2S [2] | % Inhibition at 10 μM D1 [3] | % Inhibition at 10 μM D2L [4] | % Inhibition at 10 μM D3 [5] | Solubility pH = 2.2 [6] | Solubility pH = 6.8 [6] | CLH rat (hepatic clearance) [7] | CLH human (hepatic clearance) [8] | fu,plasma rat (fraction unbound) [9] | fu,plasma human (fraction unbound) [11] | further results
1 | Cc1ccc(C(=O)N2CCC3(CCN(Cc4c[nH]c5cc(F)ccc45)CC3)C2)cc1C [Compound 42, (3,4-dimethylphenyl)(8-[(6-fluoro-1H-indol-3-yl)methyl)-2,8-diazaspiro[4.5]decan-2-yl)methanone] |  |  |  |  |  |  |  |  |  |  |  |  |  | % Inhibition at D4.4 ([1]; screened at Eurofins): 44%
2 | Cc1ccc(C(=O)N2CC3(CCN(Cc4ccc(Cl)c(Cl)c4)CC3)C2)cc1C [Compound 9] | 91% | 81 nM | 22 nM | 25% | 24% | 24% | 62% | 84.2 µM | 31.6 µM |  |  |  |  | 
3 | Cc1ccccc1C(=O)N1CC2(CCN(Cc3c[nH]c4cc(F)ccc34)CC2)C1 [Compound 33] | 93% | 210 nM | 59 nM | 0% | 9% | −7% | 11% | 92.9 µM | 87.7 µM | 39.0 mL/min/kg | 16.0 mL/min/kg | 0.26 | 0.19 | piperidine N-dealkylation metabolite, relative percentage [10]: 6.3%; turnover in hepatocytes [10]: low turnover; parent compound remaining postincubation ([10]; LC/MS relative percentage): 87.9%; piperidine N-dealkylation metabolite, relative percentage [12]: 32.4%; turnover in hepatocytes [12]: moderate turnover; parent compound remaining postincubation ([12]; LC/MS relative percentage): 65.8%; AUC (area under the curve) [13]: 27.0 ng·h/mL; CLp (plasma clearance) [13]: 123 mL/min/kg; Vss (volume of distribution at steady-state) [13]: 36.9 L/kg; t1/2 (terminal phase plasma half-life) [13]: 4.02 h; in vivo clearance relative to hepatic blood flow (superhepatic clearance) [13]: > 100 % Qh
4 | COc1ncc(CN2CCC3(CC2)CN(C(=O)c2ccc(C)c(C)c2)C3)cc1F [Compound 10] |  |  |  |  |  |  |  |  |  |  |  |  |  | inhibition at 10 µM [1]: 66%
5 | O=C(c1ccc(Cl)cc1Cl)N1CC2(CCN(Cc3c[nH]c4cc(F)ccc34)CC2)C1 [Compound 19] | 92% | 82 nM | 23 nM | 14% | 21% | 23% | 30% |  |  |  |  |  |  | 
6 | O=C(c1cc(Cl)cc(Cl)c1)N1CC2(CCN(Cc3c[nH]c4cc(F)ccc34)CC2)C1 [Compound 28] | 49% |  |  |  |  |  |  |  |  |  |  |  |  | 
7 | Cc1cccc(C(=O)N2CC3(CCN(Cc4c[nH]c5cc(F)ccc45)CC3)C2)c1 [Compound 32] | 92% | 490 nM | 140 nM | 18% | 10% | 18% | 12% | 91.2 µM | 87.0 µM | 46.2 mL/min/kg | 14.7 mL/min/kg | 0.14 | 0.06 | 
8 | Cc1ccc(C(=O)N2CC3(CCN(Cc4n[nH]c5cc(F)ccc45)CC3)C2)cc1C [Compound 6] | 90% | 150 nM | 43 nM | 15% | −4% | 3% | 25% | 89.4 µM | 83.1 µM |  |  |  |  | 
9 | Cc1ccc(C(=O)N2CC3(CCN(Cc4ccc(F)c(F)c4)CC3)C2)cc1C [Compound 4] | 88% | 2790 nM | 250 nM | 8% | 21% | 9% | 9% | 95.3 µM | 88.9 µM | 59.1 mL/min/kg | 16.9 mL/min/kg | 0.03 | 0.01 | AUC (area under the curve) [13]: 28.7 ng·h/mL; CLp (plasma clearance) [13]: 116 mL/min/kg; Vss (volume of distribution at steady-state) [13]: 5.52 L/kg; t1/2 (terminal phase plasma half-life) [13]: 1.05 h; in vivo clearance relative to hepatic blood flow (superhepatic clearance) [13]: > 100 % Qh
10 | Cc1ccc(C(=O)N2CC3(CCN(Cc4c[nH]c5cc(F)ccc45)CC3)C2)cc1 [Compound 29] | 99% | 62 nM | 17 nM | 5% | 27% | 20% | 13% | 91.9 µM | 85.3 µM | 49.2 mL/min/kg | 17.3 mL/min/kg | 0.15 | 0.05 | 
11 | Cc1ccc(C(=O)N2CC3(CCN(Cc4cn(C)c5ccccc45)CC3)C2)cc1C [Compound 12] |  |  |  |  |  |  |  |  |  |  |  |  |  | IC50 [1]: 280 nM; Ki [1]: 76 nM; inhibition at 10 µM [1]: 92%; inhibition at 10 µM ([2]; read-out: % Inhibition at 10 μM D2S): 24%; inhibition at 10 µM ([3]; read-out: % Inhibition at 10 μM D1): 27%; inhibition at 10 µM ([4]; read-out: % Inhibition at 10 μM D2L): 16%; inhibition at 10 µM ([5]; read-out: % Inhibition at 10 μM D3): 19%; solubility at 18 h ([6]; pH 2.2, aqueous buffer): 88.3 µM (≈ 35.5 µg/mL); solubility at 18 h ([6]; pH 6.8, aqueous buffer): 87.4 µM (≈ 35.1 µg/mL)
12 | Cc1ccc(C(=O)N2CC3(CCN(Cc4c[nH]c5cc(F)ccc45)CC3C)C2)cc1C (stereo not drawn) [Compound 13] | 85% | 990 nM | 270 nM |  |  |  |  | 90.5 µM | 88.2 µM |  |  |  |  | 
13 | O=C(c1ccc2c(c1)OCO2)N1CC2(CCN(Cc3c[nH]c4cc(F)ccc34)CC2)C1 [Compound 20] | 95% | 84 nM | 23 nM | 12% | 16% | 18% | 14% | 86.4 µM | 82.7 µM | 36.2 mL/min/kg | 13.7 mL/min/kg | 0.23 | 0.10 | AUC (area under the curve) [13]: 26.4 ng·h/mL; CLp (plasma clearance) [13]: 126 mL/min/kg; Vss (volume of distribution at steady-state) [13]: 44.4 L/kg; t1/2 (terminal phase plasma half-life) [13]: 4.55 h; in vivo clearance relative to hepatic blood flow (superhepatic clearance) [13]: > 100 % Qh
14 | Cc1ccc(S(=O)(=O)N2CC3(CCN(Cc4c[nH]c5cc(F)ccc45)CC3)C2)cc1 [Compound 34] | 94% | 120 nM | 33 nM | 17% | 47% | 50% | 49% |  |  |  |  |  |  | 
15 | Cc1ccc(C(=O)N2CC3(CCN(Cc4c[nH]c5cc(F)ccc45)C(C)C3)C2)cc1C (stereo not drawn) [Compound 14] | 89% | 1920 nM | 530 nM |  |  |  |  |  |  |  |  |  |  | 
16 | Cc1ccc(C(=O)N2CC3(CCN(Cc4c[nH]c5cc(F)ccc45)CC3)C2)cc1C [Compound 5] | 94% | 200 nM | 56 nM | 25% | 35% | 24% | 27% | 83.4 µM | 87.0 µM |  |  |  |  | 

Source: publication PMC11191600 (ACS chemical neuroscience, 2024)
